The source of these data is patent US6894153B1, “Gene Any-RF; dormancy regulatory substance, process for producing the same and cell regulator for vital cells” (priority 1999, dated 2005).

No end group written: not given here.

The test system of series [1] is pre-larvae of Antheraea yamamai. Nature of the series: Bioassay of dormancy-control in pre-larvae destined to awake by KK-42 treatment. As for the experimental part:
In general, the activity of a repressive factor is determined using a non-dormancy type insect and evaluated on the basis of the rate of dormancy induction, but there is not any non-dormancy type strain in Antheraea yamamai.
Subsequent to the completion of the treatment for awakening from the dormancy, 0.05 μl each of distilled water was injected to each larva after 24 hours from the completion of the treatment and this group of larvae was used as the control group. In the case of the isolated and purified product, a solution whose concentration was adjusted in such a manner that 100 pmol of the product was present in 0.05 μl of distilled water was injected into each larva, while in the case of the synthetic peptides in the amidated and free acid forms, 100 pmol/0.05 μl each of the peptide was injected into each larva. In any case, the larvae were inspected for the number of larvae falling into dormancy, the number of larvae awakening from the dormancy, the number of died larvae and the average days required till awakening from the dormancy (diapause termination) to thus evaluate the rate of larvae awakening from the dormancy.
After 24 hours from the treatment with the KK-42 solution, 0.05 μl of distilled water was injected to the pre-larvae, followed by a second distilled water injection thereto after additional 24 hours and a third distilled water injection after additional 24 hours from the second distilled water injection (in the following Table 2, they are referred to as control 1, 2 and 3 respectively). And the rate of pre-larvae awaken from the dormancy (the rate of diapause termination) was evaluated in each case.

Series [2] deals with cultured cells of lymphoma and leukemia. The note with it: Moore et al. 1994; cited from earlier work.
Series [3] concerns rat hepatoma cells (dRLh84). Kind of series: Assay for cancer cell growth-control (viable cell count, trypan blue). It counts as cell-based. The procedure: (§1) Rat hepatoma cells (dRLh 84) were used and these cells were cultivated in Dulbecco's modified Eagle medium (DMEM) containing 4 mM glutamine, 50U/ml penicillin, 100 μg/ml kanamycin, and supplemented with 10% neonatal calf serum. In respect of the foregoing cells, the cultivation thereof was carried out at 37° C. in a wet atmosphere including 5% CO2.
The used culture medium was removed from a (100 mm dish (generally schale) in which cells were cultured and the dish was once washed with PBS(−) (prepared by removing Ca and Mg ions from phosphate buffered saline). To the dish, there was gently added 1.5 ml of a 10% trypsin solution so that the solution uniformly spreaded throughout the dish, 1 ml of the solution was removed, the dish was maintained at 37° C. for 5 minutes and it was confirmed with a microscope that the cells were pealed off from the bottom of the dish. Then 9.5 ml of a fresh DEME medium was added to the dish and the cells were separated into individual cells by pipetting to thus suspend the cells in the medium. Dishes of Φ100 mm were inoculated with this suspension in a dilution of 1/20 (total amount: 10 ml), followed by introduction thereof into an incubator and cultivation for 24 hours. Each peptide was added to these dishes in a predetermined concentration, followed by cultivation at 37° C., determination of the number of cells using a blood counting plate after 24 and 48 hours from the initiation of the cultivation to thus inspect the peptides for their cell growth-control functions.
Rat hepatoma cells (dRLh84, 3×10^5 cells) were cultured in a culture medium, to which the peptide (DILRG—NH2, SEQ ID NO:5, the peptide of SEQ ID NO:1 having the C-terminal amidated or DILRG—COOH, SEQ ID NO:1) was added in a predetermined amount (0, 50, 100, 150, 200 μg/ml) in the presence of 5% CO2 at 37° C. for 40 hours. Thereafter, the culture medium was treated with trypan blue to determine the […] cell count.
Thus, the cultivation time was extended to investigate the relation between the proliferation ability of cancer cells and the cultivation time using the physiologically active substance of the present invention. The method for cultivation used herein was identical to that used in Example 7. The cultivation time was extended up to 72 hours. The cultivation of 3×10^5 cells was carried out using a culture medium supplemented with PBS(−) for a control group and a cell culture medium for an experimental group, to which 200 μg/ml of the peptide (DILRG—NH2) was added, in the presence of 5% CO2 at 37° C. for 24, 48 and 72 hours, respectively. Thereafter, the culture medium was treated with trypan blue to determine the viable cell count.
The fact that the physiologically active substance derived from insects can results obtained in Examples 6, 7 and 8. […] Thus, we investigated which part of the 5 amino acid sequence of this substance is indispensable to the cell growth-control activity from the structural standpoint. Cells were cultured by the same method used in Example 6. More specifically, in the control group, there were used a culture medium supplemented with PBS(−) and FMRF—NH2(SEQ ID NO:4), which is widely distributed from echinoderms to insects and mammals, which comprises 4 amino acid residues and whose C-terminal is amidated. In an experimental group, there was used a culture medium supplemented with the complete synthetic peptide (DILRG—NH2) or an incomplete synthetic peptide (ILRG—NH2) free of the aspartic acid residue at the N-terminal in a concentration of 200 μg/2.6×10^5 cells. The control group and the experimental group were cultured at 37° C. for 48 hours in the presence of 5% CO2. Thereafter the cells were stained with trypan blue to thus determine the number of cells.

Series [4] deals with rat hepatoma cells (dRLh84). Kind of series: Morphological observation of cultured cancer cells (inverted microscope). The series is classed as cell-based. Conditions: 200 μg/ml. As for the experimental part:
as §1
The inhibitory effect of the penta-peptide on the growth of cancer cells was examined as follows. As the cancer cells, there were used rat hepatoma cells (dRLh84), which were relatively easily available and whose cultivation was easy. To make clear the relation between the physiologically active substance (RF—NH2) of the present invention and the growth of cancer cells, cancer cells were cultured in a cell culture medium supplemented with PBS(−) for a control group and culture mediums supplemented with 200 μg/ml each of the peptide whose C-terminal was amidated, i.e., RF—NH2 and the peptide whose C-terminal was in a free acid form, i.e., RF—COOH, respectively, for the experimental groups. The number of cultured cells was adjusted to 3 to 5×10^5, and the cells were cultured with or without a predetermined amount of each peptide in the presence of 5% CO2 at 37° C. […]

In series [5] the test system is rat hepatoma cells (dRLh84). Kind of series: Flow cytometric analysis of cell cycle (propidium iodide DNA content). The series is classed as cell-based. The note with it: 200 μg/ml; 48 hours. As for the experimental part: The cells treated with each peptide was fixed at 4° C. for 4 hours using 70% ethanol. The fixed cells were washed with PBS(−), then treated with 2 mg/ml of RNaseA at 37° C. for 30 minutes to thus […] the RNA. Thereafter, the cells were stained with propidium iodide (25 μg/ml) for not less than 30 minutes and filtered through a nylon mesh. Then the intensity of fluorescence (DNA content per cell) observed for 10,000 cells was analyzed using a flow cytometer ([…] available from Becton Dickinson Company).
The fact that the physiologically active substance of the present invention can inhibit the cell growth ability of the rat hepatoma is substantiated experimentally by the results obtained in Examples 6, 7 and 8 (FIGS. 9, 10 and 11). Thus, we tried to elucidate the mechanism of the inhibition. The peptide (DILRG—NH2)(200 μg/ml) was added to the culture medium under the same conditions used in Example 6 and the cells were cultured, followed by fixing the cells after cultivation of 48 hours with ethanol and then staining the cells with propidium iodide. In addition, the same procedures used above were repeated using a culture medium supplemented with PBS(−) as a control group. The DNA content in the cells was analyzed using a flow cytometer. The flow cytometric analysis employed for this purpose comprises the step of staining cells with propidium iodide, which is a fluorescent dye capable of being linked with DNA to thus determine the DNA content of the cell and this method permits the analysis of the cell cycle control. More specifically, the biological cell multiplies by cell division while undergoing the following cycle change: G0/G 1. S (DNA replication stage) and M stage (cell division stage) in this order. FIGS. 12(A) and 12(B) are graphs each showing the results obtained by determining the DNA content in each cancer cell using a flow cytometer and then analyzing the results. It can be predicted from the data shown in FIGS. 12(A) and 12(B), i.e., the cell cycle change observed for the control group (PBS(−) was used, FIG. 12(A)) and that observed for the experimental group (RF—NH2 was used, FIG. 12(B)), that the pattern of the rat hepatoma cell cycle is differently affected by the presence and absence of the peptide.
Then the patterns observed in FIGS. 12(A) and 12(B) were examined in detail. In the G0/G1 stage, the DNA content is 2n, while that observed in the M stage is two times that observed for the G0/G1 stage or 4n. In the analysis of data shown in FIGS. 12(A) and 12(B), the DNA contents of 2n and 4n correspond to peaks or wide peaks at 360 and 700, respectively. If it is assumed that the analyzed pattern of the cell cycle change shown in FIGS. 12(A) and 12(B) comprises a linear coupling of peaks specific to G0/G1, S, M stages, the rate of cells in each stage can be obtained by dividing the pattern into these individual components.

Series [6] in a line: Acute toxicity test in rats. It counts as in vivo. The procedure:
(§2) The foregoing peptide of the present invention as the physiologically active substance is almost free of an) side effect in the living body as compared with the conventional Cecropin and Pierisin and any acute toxicity is not observed at all. More specifically, the peptide of the present invention was administered to rats and mice through two routes, i.e., oral and percutaneous routes, in an amount of 0.5 g per unit body weight (1 kg) and the acute toxicity test was carried out according to the predetermined method. […] Moreover, the testis of the genital organ was removed from each animal after the acute toxicity test and the tissue was examined with a microscope. […] In addition, the peptide of the present invention is a low molecular weight penta-peptide and therefore, it never causes any antigen-antibody reaction and it is safe.

Series [7] is described as follows: Acute toxicity test in mice. The series is classed as in vivo. The procedure:
as §2

[8] abbreviates: 100 pmol/0.05 μl injected once 24 hours after KK-42 treatment, N 10 × 3.
Setting [9] is: 100 pmol/0.05 μl injected once 24 hours after KK-42 treatment.
Where [10] appears, read: Table 2, 100 pmol/0.05 μl × 1, N 10 × 3.
The mark [11] stands for this setting: Table 2, 100 pmol/0.05 μl × 2 (24 hours apart), N 10 × 3.
The mark [12] stands for this setting: Table 2, 100 pmol/0.05 μl × 3 (24 hours apart), N 10 × 3.
Where [13] appears, read: Example 10, 200 μg/2.6×10^5 cells, 48 hours.
Setting [14] is: after the acute toxicity test, 0.5 g/kg oral and percutaneous.
Setting [15] is: oral and percutaneous routes, 0.5 g per unit body weight (1 kg).

On to “1-benzyl-5-[(E)-2,6-dimethyl-1,5-heptadienyl] [KK-42, reference compound]”, for which the “larvae awakened from the dormancy” value in series [1] (0.1 μg/0.5 μl solution in acetone applied on the ventral portion of each larva) was found to be 100%.
Cecropin: the “anti-tumor activity to cultured cells” value in series [2] was “anti-tumor activity”.
With DILRG-OH [Asp-Ile-Leu-Arg-Gly-COOH], the “Number of Insects Died” value in series [1] (setting [8]) is 0.
Regarding H-DILRG-NH2 [Asp-Ile-Leu-Arg-Gly-NH2], the “No. of Days (Time (day) required till Awakening)” value in series [1] (setting [9]) was determined as 6.72 days. Moreover, in series [1] (setting [9]), the “Rate (the rate of larvae awakening from dormancy)” value is listed as 53.3%. The “Number of Insects Awa (Awakening from Dormancy)” value in series [1] (setting [8]) stood at 16. The “Number of Insects Died” value in series [1] (setting [8]), in series [1] (setting [10]), in series [1] (setting [11]) and in series [1] (setting [12]) was 0 in each case. Also, the “Number of Insects Dor (Dormancy)” value in series [1] (setting [8]) is 14; in series [1] (setting [10]), 14; in series [1] (setting [11]) it was 21; in series [1] (setting [12]), 26. For the same substance, the “Rate of Diapause Termination” value in series [1] (Table 2, 100 pmol/0.05 μl × 1) amounted to 53.3%; in series [1] (Table 2, 100 pmol/0.05 μl × 2 (24 hours apart)), 30%; in series [1] (Table 2, 100 pmol/0.05 μl × 3 (24 hours apart)), 13.3%. The “Number of Insects Awa (Diapause Termination)” value came to 16 in series [1] (setting [10]), 9 in series [1] (setting [11]) and 4 in series [1] (setting [12]). Further, the viable cell count result is “markedly reduced” in series [3] (Example 7, 50 μg/ml, 3×10^5 cells cultured 40 hours); 7.7×10^5 cells in series [3] (Example 7, 200 μg/ml, 3×10^5 cells cultured 40 hours); 8×10^5 cells in series [3] (Example 8, 200 μg/ml, from 3×10^5 cells within 72 hours); ~7.7×10^5 cells in series [3] (setting [13]). For the same substance, the “viable cell count relative to that observed for the control group” value in series [3] (Example 7, 200 μg/ml, 40 hours) is “a half”. Moreover, the “factor of increase of the number of cells” value in series [3] (Example 8, 200 μg/ml, within 72 hours) turned out to be 2.7. For the same substance, the “cancer cell growth after transfer to fresh culture medium without peptide” value in series [3] (after cultivation for 48 hours with 200 μg/ml peptide) is on record as “rapidly began to proliferate like the control group”. Moreover, the “number of cancer cells compared with the initiation of the cultivation (0 hour)” value in series [4] (after 24 and 48 hours) is listed as “not increased at all”. Further, the “shape of the cells” value in series [4] (after 48 hours) is reported as “changed from a spindle-like shape to a circular shape”. For the same substance, the “G0/G1 stage rate higher than that observed for the control group” value in series [5] is “not less than 30%”. Moreover, in series [5], the “Rate of cells in G0/G1 Stage” value is 66.07%. For the same substance, the “Rate of cells in G2/M Stage” value in series [5] is 12.10%. In addition, the “Rate of cells in S Stage” value in series [5] was 21.84%. In addition, in series [5], the “S stage rate lower than that observed for the control group” value was “not less than 40%”. For the same substance, the “testis tissue examined with a microscope” value in series [6] (setting [14]) and in series [7] (setting [14]) was “any abnormality was not observed at all” throughout. Also, the “acute toxicity such as convulsion and vomiting” value in series [6] (setting [15]) and in series [7] (setting [15]) was “not observed any acute toxicity” in each case.
Regarding Ile-Leu-Arg-Gly (ILRG-NH2) [ILRG—NH2], in series [3] (setting [13]), the growth-inhibitory effect result is on record as “sufficient growth-inhibitory effect” and the viable cell count is recorded as 8.4×10^5 cells.
